Results published in patent US11634381B2, “RUNX2 transcription factor inhibitors and uses thereof” (University of Maryland, Baltimore, priority 2015, dated 2023).

Experiments:
BC cells = test: Anchorage-independent cell growth assay (soft agar); assay type: cell-based, human; settings: 50 μM
Method: Cells (10,000) were mixed in 1 ml of 0.3% low-melting agarose over a 0.6% agar bottom layer in normal growth media. The medium (600 μl) with or without compound 1 (50 μM) on soft agar was changed three times a week for 2-3 weeks. Images of MDA-231 and MCF7 were taken using Nikon Eclipse TE-2000S microscope with Zen Pro image software, and of MDA-468 using Olympus CKX41 microscope with Q-Capture Pro 7 image software at indicated magnifications under the same exposure settings for corresponding vehicle and drug treatments.

COX-2 and NF-κb promoter = test: Luciferase reporter assay of promoters without Runt binding sequences; assay type: cell-based, human; settings: MCF7-RUNX2 and MCF7-Empty cells, 0˜50 mM, 24 hrs
Method: Cells were plated in 96-well plates (30,000 cells/well) and incubated overnight. Cells were co-transfected with indicated luciferase-reporter plasmids (25 ng/well) and pSV-Renilla-Luc (Promega) (15 ng/well) for 6 hrs and compound 1 ([…]) was further treated for 18-48 hrs. COX-2 (P2-274)-Luc (−170bp˜+104bp) and control plasmids (PXP2-Luc) were kindly provided byDr. Miguel A. Iñiguez (Universidad Autónoma de Madrid, Spain), and pNF-kb-Luc was from Dr. Hancai Dan (University of Maryland). Luciferase assay was performed using the Dual-Glo Luciferase Assay Systems as per manufacturer's recommendation (Promega).

RUNX2 responsive genes = test: Q-RT-PCR of RUNX2 responsive genes; assay type: cell-based, human; settings: 50 μM
Method: Total RNA was extracted using TRIzol (Life Technologies). One […] of total RNA was reverse transcribed with oligo-(dT) primer using the SuperScript first-strand synthesis system (Invitrogen) to synthesize cDNA. One μl of each cDNA was used for real-time RT-PCR using QuantiFast SYBR Green PCR Kit […]. mRNA expression of gene of interest relative to β-actin was calculated based on the threshold cycle (Ct) as 2^−D(DCt) method.

RUNX2 [1] = test: Western blot of RUNX2, RUNX1, CBF-β; assay type: cell-based, human; settings: for CBF-β levels: MDA-231, MDA-468 and MCF7 cells
Method: (§1) Whole cell lysates extracted in RIPA buffer (Upstate) were separated on 4-12% gradient SDS-PAGE and transferred to nitrocellulose membrane. The blots were incubated with specific antibodies for each protein overnight at 4° C. After antibody washing, the blots were reacted with their respective secondary antibody and detected with enhanced chemiluminescence reagents (Millipore) according to the supplier's protocol. Antibodies for proteins were purchased as below. RUNX1, RUNX2, CBF-β, ubiquitin and caspase-3 (Cell Signaling Technologies), S451-p-RUNX2 (Bioss Gentaur, Belgium), RUNX3 and Glut-1 (Millipore, Calif.), β-actin and RUNX2 antibody for IHC (Sigma-Aldrich), and Ki-67 for IHC (Bethyl Laboratories, Inc, TX).

Complex I = Complex I activity; assay type: cell-based, human; settings: MDA-468 and MCF7 cells, 50 μM, 1-3 days
Method: In FIG. 26A MDA-231, MDA-468, MCF7, and BT-474 breast cancer cells were treated with compound 1 (50 μM) for 1-3 days. Complex I activity increased in MDA-468 and MCF7 cells. In FIG. 26B T47D-Vector control or T47D-RUNX2-clone #10 overexpressing cells; MCF7-Vector Control or RUNX2-clone #2 overexpressing cells were treated with 50 μM compound 1 for 1 day.

mammary tumors = test: MMTV-PyMT transgenic mouse model; assay type: in vivo, MMTV-PyMT mice
Method: For the MMTV polyoma middle T antigen (PyMT) mouse model, female mice were purchased from Jackson Laboratory. As mice developed first palpable mammary tumors after 5 weeks of age, mice were randomly assigned to 4 treatment groups at 6 weeks of age and received i.p. injections of compound 1 (1, 5 and 20 mg/kg/group) or equivalent volumes of vehicle (10% DMSO/90% PBS) (200 μl) twice a week. Palpable tumors were monitored every 1 to 2 days until 12 weeks of age to determine tumor incidence (number of tumors per mouse) and onset (the age of palpable tumors). Tumor weight was quantified at the final day after mice were euthanized and tumors were excised. Tumor volume [(length×width^2)/2] was measured by caliper.

RUNX2 [2] = molecular target: RUNX2 (Homo sapiens, UniProt Q13950); test: Western blot of RUNX2, RUNX1, CBF-β; assay type: cell-based; parameters: endogenous in cells; host or cells: MDA-231, MDA-468
Sequence of RUNX2 (Homo sapiens, UniProt Q13950) (Q13950 whole entry): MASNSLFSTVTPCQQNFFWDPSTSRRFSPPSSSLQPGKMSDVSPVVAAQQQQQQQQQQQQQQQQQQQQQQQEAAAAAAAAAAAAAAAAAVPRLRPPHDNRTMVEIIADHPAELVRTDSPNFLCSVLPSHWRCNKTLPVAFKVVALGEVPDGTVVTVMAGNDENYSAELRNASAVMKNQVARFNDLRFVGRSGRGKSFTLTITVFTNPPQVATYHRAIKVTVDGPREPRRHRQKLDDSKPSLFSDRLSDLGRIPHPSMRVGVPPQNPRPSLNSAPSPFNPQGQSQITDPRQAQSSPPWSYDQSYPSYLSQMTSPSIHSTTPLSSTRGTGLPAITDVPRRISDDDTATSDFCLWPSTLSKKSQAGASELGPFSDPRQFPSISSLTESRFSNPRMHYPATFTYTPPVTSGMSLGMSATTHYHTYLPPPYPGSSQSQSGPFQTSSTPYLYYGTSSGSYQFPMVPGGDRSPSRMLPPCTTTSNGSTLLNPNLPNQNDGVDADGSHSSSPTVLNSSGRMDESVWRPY
Method: as §1

O=C(O)C1C2C=CC(C2)C1C(=O)Nc1ccc(Cl)c(Cl)c1 (stereo not drawn) [compound 1, 3-(N-(3,4-dichlorophenyl)carbamoyl)-5-norbornene-2-carboxylic acid] was tested. Which anchorage-independent cell growth (BC cells; 2-3 weeks) did it give?
The anchorage-independent cell growth was “strongly inhibited”.

And the “colony size relative to control” value (BC cells; MDA-231, MCF7, MDA-468)?
Its value is < 1/10.

And the “COX-2 (P2-274)-Luc or pNF-κb-Luc promoter activities” value (COX-2 and NF-κb promoter)?
The value was “no inhibitory effect”.

What about the “level of Sirt6 mRNA” value (RUNX2 responsive genes; MDA-231 cells, 6 hrs) of the same molecule?
The value was “increased”.

And the “transcriptional levels of Glut-1 and LDHA” value (RUNX2 responsive genes; MDA-231 cells, 6 hrs)?
The value was “reduced”.

And the “mRNA expression levels of MMP13, VEGF, and MMP9” value (RUNX2 responsive genes; ectopic RUNX2-expressing MCF7 and T47D cells, 72 hrs)?
The value was “repressed”.

What about the “RUNX2-increased mRNA level of Glut-1 and LDHA” value (RUNX2 responsive genes; ectopic RUNX2-expressing T47D and MCF7 cells, 72 hrs) of the same molecule?
The value was “significantly inhibited”.

What about the CBF-β levels (RUNX2 [1]; 6 hrs) of the same molecule?
Its CBF-β levels is “increased”.

What about the CBF-β levels (RUNX2 [1]; after 24 hrs) of the same molecule?
The CBF-β levels was “decreased”.

What about the “mRNA and protein expression of RUNX2” value (RUNX2 [1]; T47D-RUNX2 and MCF7-RUNX2 cells, 50 μM, 72 hrs) of the same molecule?
The value was “further enhanced”.

And the CBF-β level (RUNX2 [1]; ectopic RUNX2 T47D and MCF7 cells, 50 μM, 72 hrs)?
The CBF-β level was “reduced”.

And the “stability of RUNX1 or of CBF-β” value (RUNX2 [1]; in the presence of CHX)?
The value was “not increased”.

What about the RUNX1 protein levels (RUNX2 [1]; most BC cells) of the same molecule?
The RUNX1 protein levels was “not altered”.

What about the “Complex I activity” value (Complex I) of the same molecule?
The value was “increased”.

What about the “tumor incidence per mouse at the final day (mean±SEM)” value (mammary tumors; 1 mg/Kg) of the same molecule?
Its value is 4.14±0.88.

What about the “tumor onset, Frequency of mode” value (mammary tumors; 1 mg/kg) of the same molecule?
Its value is 8.

And the “tumor onset, Mode” value (mammary tumors; 1 mg/kg)?
The value was 43.

What about the “tumor onset, range” value (mammary tumors; 1 mg/kg) of the same molecule?
The value was 15˜45.

And the “mice with less than 3 tumors” value (mammary tumors; 5 mg/Kg)?
The value was 40%.

And the “tumor incidence per mouse at the final day (mean±SEM)” value (mammary tumors; 5 mg/Kg)?
Its value is 3.05±2.57.

And the “tumor onset, Frequency of mode” value (mammary tumors; 5 mg/kg)?
The value was 11.

What about the “tumor onset, Mode” value (mammary tumors; 5 mg/kg) of the same molecule?
The value was 43.

And the “tumor onset, range” value (mammary tumors; 5 mg/kg)?
The value was 1˜45.

What about the “fraction of mice with over 6 tumors” value (mammary tumors; 20 mg/Kg) of the same molecule?
Its value is “no mice”.

And the “mice with less than 3 tumors” value (mammary tumors; 20 mg/Kg)?
The value was 55%.

And the “tumor incidence per mouse at the final day (mean±SEM)” value (mammary tumors; 20 mg/Kg)?
Its value is 2.57±0.72.

What about the “tumor onset, Frequency of mode” value (mammary tumors; 20 mg/kg) of the same molecule?
The value was 9.

And the “tumor onset, Mode” value (mammary tumors; 20 mg/kg)?
The value was 40.

And the “tumor onset, range” value (mammary tumors; 20 mg/kg)?
The value was 22˜45.

And the tumor weight (mammary tumors; 1, 5, 20 mg/Kg)?
Its tumor weight is “reduction”.

And the “staining of Ki67 in tumor sections versus control mice” value (mammary tumors; IHC)?
Its value is “much weaker”.

And the “onset of the tumors” value (mammary tumors; i.p., up to 20 mg/kg, 45 days)?
The value was “significantly delayed”.

And the “body weight and general health” value (mammary tumors; up to 20 mg/kg, MMTV-PyMT mice)?
The value was “did not significantly decrease body weight”.

What about the “nuclear translocation of RUNX2 protein” value (RUNX2 [2]) of the same molecule?
The value was “did not block or attenuate”.

And the S451-p-RUNX2 levels (RUNX2 [2]; Empty controls, MDA-468 and MCF7)?
The S451-p-RUNX2 levels was “clearly reduced”.

What about the RUNX2 protein stability (RUNX2 [2]; MDA-468 and MDA-231 cells, cycloheximide, 50 μM) of the same molecule?
The RUNX2 protein stability was “increased RUNX2 stability”.
